Our source for the EC50 values is patent publication US9233978B2, “6-fused heteroaryldihydropyrimidines for the treatment and prophylaxis of hepatitis B virus infection” (Hoffmann-La Roche Inc., priority 2014, dated 2016).

pEC50: −log10 of the molar value.

For the test, the system named is HBV. Description: Anti-HBV activity in vitro, HepG2.2.15 cells, extracellular HBV DNA by qPCR. Format: cell-based. To be noted: Hepatitis B virus, HepG2.2.15, 120 h, HepG2.2.15 cells; HBV replication inhibited by 50%, extracellular HBV DNA by qPCR; five days after compound treatment; read-out: EC50. An excerpt:
HepG2.2.15 and HepDE19 are stably-transfected cell lines containing the HBV genome. Both cell lines are derived from the hepatoblastoma cell line Hep G2 (American Type Culture Collection, ATCC® HB-8065™) by the published procedures described in references: MA Selles et al. Proc. Natl. Acad. Sci. USA 1987, 84, 1005-1009 and H Guo et al. Journal of Virology 2007, 81, 12472-12484, respectively. Both cell lines were maintained in Dulbecco's modified Eagle's medium (DMEM)-F12 medium supplemented with 10% fetal bovine serum, 100 U/mL penicillin, 100 μg/mL streptomycin, and 0.5 mg/mL of G418.
While HepG2.2.15 cells constitutively support HBV replication and production of virus particles, HepDE19 cells are inducible by tetracycline. Addition of 1 μg/mL tetracycline in culture medium suppresses HBV replication in HepDE19 cells, whereas switching to tetracycline-free medium resumes this process.
HepG2.2.15 cells were seeded into 96-well plates (3×10^4 cells in 100 μL media per well) and incubated overnight at 37° C. The test compounds were serially half-log diluted in DMSO, then diluted 100 times in culture media. 100 μL of diluted compounds were added into the plates to reach 0.5% final concentration of DMSO in every well. Five days after compound treatment, culture supernatant was collected for further analysis.
For quantitative PCR detection of extracellular HBV DNA, 100 μL of culture supernatant was collected and processed in MagNA Pure 96 Nucleic Acid Purification System (Roche Applied Science) for viral DNA extraction. The extracted samples were subjected to HBV DNA quantification by qPCR.
For orientation: In qPCR the cycle at which signal appears reflects the starting amount.
The pEC50 is −log10 of the EC50, conventionally taken in molar units. `COC(=O)C1=C(CN2CCN3C(=O)N(CC(C)(C)C(=O)O)C[C@@H]3C2)NC(c2nccs2)=NC1c1ccc(Cl)cc1` (mixture of isomers) [Example 77, 3-[(8aS)-7-[[4-(4-chlorophenyl)-5-methoxycarbonyl-2-thiazol-2-yl-1,4-dihydropyrimidin-6-yl]methyl]-3-oxo-5,6,8,8a-tetrahydro-1H-imidazo[1,5-a]pyrazin-2-yl]-2,2-dimethyl-propanoic acid]: the pEC50 is 6.84. For the molecule `CCOC(=O)C1=C(CN2CCN3C(=O)N(C(C)(C)C)C[C@@H]3[C@H]2C(=O)OC)NC(c2nccs2)=N[C@H]1c1cccc(F)c1Cl` (single isomer, unassigned) [Compound 87B-1], the pEC50 is 8.40. Under `CCOC(=O)C1=C(CN2CCN3C(=O)N(C(C)(C)C)C[C@H]3[C@@H]2C(=O)O)NC(c2nccs2)=N[C@H]1c1cccc(F)c1Cl` (single isomer, unassigned) [Example 87A] stands 7.21; under `COC(=O)C1=C(CN2CCN3C(=O)N(C(C)(C)C)C[C@H]3[C@@H]2C(=O)O)NC(c2nccs2)=N[C@H]1c1ccc(F)c(F)c1C` (single isomer, unassigned) [Example 88A], 6.17; under `COC(=O)C1=C(CN2CCN3C(=O)OC(C)(C)[C@@]3(CC(=O)O)C2)NC(c2nccs2)=N[C@H]1c1ccc(F)cc1Cl` (single isomer, unassigned) [Example 90B], 6.52. Under `CCOC(=O)C1=C(CN2CCN3C(=O)N(C)C[C@@H]3[C@H]2C(=O)O)NC(c2nccs2)=N[C@H]1c1cccc(F)c1Cl` (single isomer, unassigned) [Example 91A] stands 6.82; under `CCOC(=O)C1=C(CN2CCN3C(=O)N(CC4CC4)C[C@H]3[C@@H]2C(=O)O)NC(c2nccs2)=N[C@H]1c1cccc(F)c1Cl` (single isomer, unassigned) [Example 97A], 7.43.

For the molecule `CCOC(=O)C1=C(CN2CCN3C(=O)N(CC(C)C)C[C@H]3[C@@H]2C(=O)O)NC(c2nccs2)=N[C@H]1c1cccc(F)c1Cl` (single isomer, unassigned) [Example 101A], the pEC50 is 7.40. For `CCOC(=O)C1=C(CN2CCN3C(=O)OC[C@H]3[C@@H]2C(=O)O)NC(c2nccs2)=N[C@H]1c1cccc(F)c1Cl` (single isomer, unassigned) [Example 102A] the value was 6.83; for `CCOC(=O)C1=C(CN2CCN3C(=O)N(C(C)(C)C)C[C@H]3[C@@H]2CO)NC(c2nccs2)=N[C@H]1c1cccc(F)c1Cl` (single isomer, unassigned) [Example 103A], 6.85; for `CCOC(=O)C1=C(CN2CCN3C(=O)N(C(C)(C)C)C[C@@H]3[C@H]2CO)NC(c2nccs2)=N[C@H]1c1cccc(F)c1Cl` (single isomer, unassigned) [Example 103B], 8.00. `CCOC(=O)C1=C(CN2CCN3C(=O)N(C(C)C)C[C@H]3C2)NC(c2nccs2)=N[C@H]1c1cccc(F)c1Cl` (single isomer, unassigned) [Example 104A]: the pEC50 was 6.88. For `CCOC(=O)C1=C(CN2CCN3C(=O)N(CC(C)(C)O)C[C@H]3C2)NC(c2nccs2)=N[C@H]1c1cccc(F)c1Cl` (single isomer, unassigned) [Example 106A] the value was 7.49; for `COC(=O)C1=C(CN2CCN3C(=O)N([C@H]4C[C@@H](C(=O)O)C4)CC3C2)NC(c2nccs2)=N[C@H]1c1ccc(F)cc1Cl` (stereo in doubt) [Example 40, 3-[(8aR)-7-[[(4R)-4-(2-chloro-4-fluoro-phenyl)-5-methoxycarbonyl-2-thiazol-2-yl-1,4-dihydropyrimidin-6-yl]methyl]-3-oxo-5,6,8,8a-tetrahydro-1H-imidazo[1,5-a]pyrazin-2-yl]cyclobutanecarboxylic acid], 7.47; for `COC(=O)C1=C(CN2CCN3C(=O)OCCC3C2)NC(c2nccs2)=N[C@H]1c1ccc(F)cc1Cl` (stereo partly drawn) [Example 1, Methyl (4R)-4-(2-chloro-4-fluoro-phenyl)-6-[(6-oxo-1,3,4,8,9,9a-hexahydropyrazino[1,2-c][1,3]oxazin-2-yl)methyl]-2-thiazol-2-yl-1,4-dihydropyrimidine-5-carboxylate], 6.98. On to `COC(=O)C1=C(CN2CCN3C(=O)COCC3C2)NC(c2nccs2)=N[C@H]1c1ccc(F)cc1Cl` (stereo partly drawn) [Example 2, Methyl (4R)-4-(2-chloro-4-fluoro-phenyl)-6-[(4-oxo-6,7,9,9a-tetrahydro-1H-pyrazino[2,1-c][1,4]oxazin-8-yl)methyl]-2-thiazol-2-yl-1,4-dihydropyrimidine-5-carboxylate], for which the pEC50 is 7.27. Under `COC(=O)C1=C(CN2CCN3C(=O)OC[C@H]3C2)NC(c2nccs2)=N[C@H]1c1ccc(F)cc1Cl` [Example 3, Methyl (4R)-6-[[(8aR)-3-oxo-5,6,8,8a-tetrahydro-1H-oxazolo[3,4-a]pyrazin-7-yl]methyl]-4-(2-chloro-4-fluoro-phenyl)-2-thiazol-2-yl-1,4-dihydropyrimidine-5-carboxylate] stands 7.64; under `COC(=O)C1=C(CN2CCN3C(=O)CC[C@H]3C2)NC(c2nccs2)=N[C@H]1c1ccc(F)cc1Cl` [Example 5, Methyl (4R)-6-[[(8aS)-6-oxo-1,3,4,7,8,8a-hexahydropyrrolo[1,2-a]pyrazin-2-yl]methyl]-4-(2-chloro-4-fluoro-phenyl)-2-thiazol-2-yl-1,4-dihydropyrimidine-5-carboxylate], 6.80; under `COC(=O)C1=C(CN2CCN3C(=O)CC[C@@H]3C2)NC(c2nccs2)=N[C@H]1c1ccc(F)cc1Cl` [Example 6, Methyl (4R)-6-[[(8aR)-6-oxo-1,3,4,7,8,8a-hexahydropyrrolo[1,2-a]pyrazin-2-yl]methyl]-4-(2-chloro-4-fluoro-phenyl)-2-thiazol-2-yl-1,4-dihydropyrimidine-5-carboxylate], 7.85. For `COC(=O)C1=C(CN2CCN3C(=O)CC[C@@H]3C2)NC(c2nccs2)=N[C@H]1c1ccc(F)cc1Br` [Example 7, Methyl (4R)-6-[[(8aR)-6-oxo-1,3,4,7,8,8a-hexahydropyrrolo[1,2-a]pyrazin-2-yl]methyl]-4-(2-bromo-4-fluoro-phenyl)-2-thiazol-2-yl-1,4-dihydropyrimidine-5-carboxylate] the value was 7.85.

As for `CCOC(=O)C1=C(CN2CCN3C(=O)CC[C@@H]3C2)NC(c2nccs2)=N[C@H]1c1ccc(F)cc1Br` [Example 8, Ethyl (4R)-6-[[(8aR)-6-oxo-1,3,4,7,8,8a-hexahydropyrrolo[1,2-a]pyrazin-2-yl]methyl]-4-(2-bromo-4-fluoro-phenyl)-2-thiazol-2-yl-1,4-dihydropyrimidine-5-carboxylate], the pEC50 is 7.96. Under `CCOC(=O)C1=C(CN2CCN3C(=O)CC[C@@H]3C2)NC(c2nccs2)=N[C@H]1c1ccc(F)c(F)c1` [Example 9, Ethyl (4 S)-6-[[(8aR)-6-oxo-1,3,4,7,8,8a-hexahydropyrrolo[1,2-a]pyrazin-2-yl]methyl]-4-(3,4-difluorophenyl)-2-thiazol-2-yl-1,4-dihydropyrimidine-5-carboxylate] stands 7.19; under `CCOC(=O)C1=C(CN2CCN3C(=O)CCCC3C2)NC(c2nccs2)=N[C@H]1c1cccc(F)c1Cl` (stereo partly drawn) [Example 10, Ethyl (4R)-4-(2-chloro-3-fluoro-phenyl)-6-[(6-oxo-3,4,7,8,9,9a-hexahydro-1H-pyrido[1,2-a]pyrazin-2-yl)methyl]-2-thiazol-2-yl-1,4-dihydropyrimidine-5-carboxylate], 7.24.
